Measured values taken from patent US12398154B2, “Azaquinazoline pan-KRas inhibitors” (Mirati Therapeutics, Inc., priority 2020, dated 2025).

Tests used:
KRas G12D = KRas G12D (Homo sapiens, UniProt P01116, G12D); test: biochemical;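 also: TR-FRET displacement binding assay on KRas, read after a one-hour incubation at room temperature, IC50 fitted from percent-of-control values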
Protocol: (§1) The ability of a compound to bind to KRas was measured using a TR-FRET displacement assay. […] After a 60-minute incubation at room temperature, the reaction was measured using a BMG LABTECH CLARIO star Plus via TR-FRET. […] The POC values were fit to a 4-parameter IC50 equation and the IC50 value reported.

KRas G12V = KRas G12V (Homo sapiens, UniProt P01116, G12V); test: biochemical;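 also: KRas binding measured by TR-FRET displacement at room temperature, IC50 fitted from percent of control values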
KRas G12V, sequence (P01116 1-169 isoform P01116-2 G12V): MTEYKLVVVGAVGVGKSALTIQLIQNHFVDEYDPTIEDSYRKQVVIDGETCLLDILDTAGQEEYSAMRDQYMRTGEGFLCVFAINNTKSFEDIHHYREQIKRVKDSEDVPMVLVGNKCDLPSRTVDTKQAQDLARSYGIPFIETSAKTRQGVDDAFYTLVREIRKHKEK
Protocol: as §1

KRas G12R = KRas G12R (Homo sapiens, UniProt P01116, G12R); test: biochemical;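 also: TR-FRET displacement assay of compound binding to KRas, read after one hour at room temperature, potency from a four-parameter fit of percent-of-control values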
KRas G12R, sequence (P01116 1-169 isoform P01116-2 G12R): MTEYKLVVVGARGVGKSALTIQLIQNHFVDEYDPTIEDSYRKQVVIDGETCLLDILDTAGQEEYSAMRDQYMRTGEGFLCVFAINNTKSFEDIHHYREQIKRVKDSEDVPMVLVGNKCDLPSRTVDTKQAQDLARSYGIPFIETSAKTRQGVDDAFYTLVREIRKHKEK
Protocol: as §1

pERK in MKN1 cells = test: Inhibition of KRas phosphorylation of ERK (Cisbio HTRF pERK assay); details: Homo sapiens, MKN-1, 3 h, read-out: Inhibition (HTRF IC50) of KRas-mediated Phosphorylation of ERK, MKN1
pERK in PSN1 cells = test: as above; details: Homo sapiens, PSN1, 3 h, read-out: Inhibition (HTRF IC50) of KRas-mediated Phosphorylation of ERK, PSN1
pERK in ASPC1 cells = test: as above; details: Homo sapiens, ASPC1, read-out: Inhibition (HTRF IC50) of KRas-mediated Phosphorylation of ERK, AsPC-1
pERK in H727 cells = test: as above; details: Homo sapiens, NCI-H727, read-out: Inhibition (HTRF IC50) of KRas-mediated Phosphorylation of ERK, H727
pERK in A549 cells = test: as above; details: Homo sapiens, A549, read-out: Inhibition (HTRF IC50) of KRas-mediated Phosphorylation of ERK, A549
pERK in H460 cells = test: as above; details: Homo sapiens, NCI-H460, read-out: Inhibition (HTRF IC50) of KRas-mediated Phosphorylation of ERK, H460
pERK in HCT116 cells = test: as above; details: Homo sapiens, HCT-116, read-out: Inhibition (HTRF IC50) of KRas-mediated Phosphorylation of ERK, HCT116
pERK in H358 cells = test: as above; details: Homo sapiens, NCI-H358, read-out: Inhibition (HTRF IC50) of KRas-mediated Phosphorylation of ERK, H358

KRas G12D, sequence (P01116 1-169 isoform P01116-2 G12D): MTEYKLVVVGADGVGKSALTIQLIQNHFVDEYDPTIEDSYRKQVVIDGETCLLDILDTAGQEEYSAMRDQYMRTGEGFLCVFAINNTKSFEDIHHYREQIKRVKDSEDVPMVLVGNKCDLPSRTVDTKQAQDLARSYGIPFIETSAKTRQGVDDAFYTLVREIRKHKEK

SMILES | IC50 (KRas G12D) [nM] | IC50 (KRas G12V) [nM] | IC50 (KRas G12R) [nM] | IC50 (pERK in MKN1 cells) [nM] | IC50 (pERK in PSN1 cells) [nM] | IC50 (pERK in ASPC1 cells) [nM] | IC50 (pERK in H727 cells) [nM] | IC50 (pERK in A549 cells) [nM] | IC50 (pERK in H460 cells) [nM] | IC50 (pERK in HCT116 cells) [nM] | IC50 (pERK in H358 cells) [nM]
CCc1c(F)ccc2cc(O)cc(-c3ncc4c(N5CCC[C@@](C)(O)C5)nc(OC[C@]56CCCN5[C@@H](COC(=O)N(C)C)CC6)nc4c3F)c12 [Example 362, ((3R,7aR)-7a-(((7-(8-ethyl-7-fluoro-3-hydroxynaphthalen-1-yl)-8-fluoro-4-((R)-3-hydroxy-3-methylpiperidin-1-yl)pyrido[4,3-d]pyrimidin-2-yl)oxy)methyl)hexahydro-1H-pyrrolizin-3-yl)methyl dimethylcarbamate] | 3 | 3 | 4 | 37 | 5130 | 73 | 313 | 629 | 404 | 763 | 113
CCc1c(F)ccc2cc(O)cc(-c3ncc4c(N5CCCC6(CSC6)C5)nc(OC[C@@]56CCCN5C[C@H](F)C6)nc4c3F)c12 [Example 365, 5-ethyl-6-fluoro-4-(8-fluoro-2-(((2R,7aS)-2-fluorohexahydro-1H-pyrrolizin-7a-yl)methoxy)-4-(2-thia-6-azaspiro[3.5]nonan-6-yl)pyrido[4,3-d]pyrimidin-7-yl)naphthalen-2-ol] | ≤ 2 | ≤ 2 | ≤ 2 | 10 | 2860 | 17 | 24 | 11 | 17 | 77 | 6
C#Cc1c(F)ccc2cc(O)cc(-c3ncc4c(N5CCCC6(CC(O)C6)C5)nc(OC[C@@]56CCCN5C[C@H](F)C6)nc4c3F)c12 (stereo partly drawn) [Example 393, 6-(7-(8-ethynyl-7-fluoro-3-hydroxynaphthalen-1-yl)-8-fluoro-2-(((2R,7aS)-2-fluorohexahydro-1H-pyrrolizin-7a-yl)methoxy)pyrido[4,3-d]pyrimidin-4-yl)-6-azaspiro[3.5]nonan-2-ol] | ≤ 2 | ≤ 2 | ≤ 2 | 8 | 449 | 68 | 24 | 133 | 110 | 68 | 20
C#Cc1c(F)ccc2cc(O)cc(-c3ncc4c(N5CCCn6nc(C(=O)N(C)C)cc6C5)nc(OC[C@@]56CCCN5C[C@H](F)C6)nc4c3F)c12 [Example 398, 5-(7-(8-ethynyl-7-fluoro-3-hydroxynaphthalen-1-yl)-8-fluoro-2-(((2R,7aS)-2-fluorohexahydro-1H-pyrrolizin-7a-yl)methoxy)pyrido[4,3-d]pyrimidin-4-yl)-N,N-dimethyl-5,6,7,8-tetrahydro-4H-pyrazolo[1,5-a][1,4]diazepine-2-carboxamide] | ≤ 2 | ≤ 2 | ≤ 2 | 7 | 6690 | 25 | 26 | 102 | 387 | 348 | 10
C[C@@]1(O)CCCN(c2nc(OC[C@@]34CCCN3C[C@H](F)C4)nc3c(F)c(-c4cc(O)cc5ccc(F)c(Br)c45)ncc23)C1 [Example 399, (R)-1-(7-(8-bromo-7-fluoro-3-hydroxynaphthalen-1-yl)-8-fluoro-2-(((2R,7aS)-2-fluorohexahydro-1H-pyrrolizin-7a-yl)methoxy)pyrido[4,3-d]pyrimidin-4-yl)-3-methylpiperidin-3-ol] | ≤ 2 | ≤ 2 | ≤ 2 | 1 | 357 | 3 | 16 | 14 | 18 | 23 | 4
CC1(O)COCCN(c2nc(OC[C@@]34CCCN3C[C@H](F)C4)nc3c(F)c(-c4cc(O)cc5ccc(F)c(Br)c45)ncc23)C1 (stereo partly drawn) [Example 400, 4-(7-(8-bromo-7-fluoro-3-hydroxynaphthalen-1-yl)-8-fluoro-2-(((2R,7aS)-2-fluorohexahydro-1H-pyrrolizin-7a-yl)methoxy)pyrido[4,3-d]pyrimidin-4-yl)-6-methyl-1,4-oxazepan-6-ol] | ≤ 2 | ≤ 2 | ≤ 2 | 7 | 3540 | 27 | 87 | 62 | 41 | 113 | 9
Oc1cc(-c2ncc3c(N4CC5CC(O)C(C5)C4)nc(OC[C@@]45CCCN4C[C@H](F)C5)nc3c2F)c2c(Br)c(F)ccc2c1 (stereo partly drawn) [Example 402, 3-(7-(8-bromo-7-fluoro-3-hydroxynaphthalen-1-yl)-8-fluoro-2-(((2R,7aS)-2-fluorohexahydro-1H-pyrrolizin-7a-yl)methoxy)pyrido[4,3-d]pyrimidin-4-yl)-3-azabicyclo[3.2.1]octan-6-ol] | ≤ 2 | ≤ 2 | ≤ 2 | 3 | 514 | 12 | 14 | 34 | 51 | 46 | 4
Oc1cc(-c2ncc3c(N4CCCC5(CC(O)C5)C4)nc(OC[C@@]45CCCN4C[C@H](F)C5)nc3c2F)c2c(Br)c(F)ccc2c1 (stereo partly drawn) [Example 407, 6-(7-(8-bromo-7-fluoro-3-hydroxynaphthalen-1-yl)-8-fluoro-2-(((2R,7aS)-2-fluorohexahydro-1H-pyrrolizin-7a-yl)methoxy)pyrido[4,3-d]pyrimidin-4-yl)-6-azaspiro[3.5]nonan-2-ol] | ≤ 2 | ≤ 2 | ≤ 2 | 15 | 1330 | 27 | 15 | 27 | 26 | 41 | 3
CN(C)C(=O)c1cc2n(n1)CCCN(c1nc(OC[C@@]34CCCN3C[C@H](F)C4)nc3c(F)c(-c4cc(O)cc5ccc(F)c(Br)c45)ncc13)C2 [Example 412, 5-(7-(8-bromo-7-fluoro-3-hydroxynaphthalen-1-yl)-8-fluoro-2-(((2R,7aS)-2-fluorohexahydro-1H-pyrrolizin-7a-yl)methoxy)pyrido[4,3-d]pyrimidin-4-yl)-N,N-dimethyl-5,6,7,8-tetrahydro-4H-pyrazolo[1,5-a][1,4]diazepine-2-carboxamide] | ≤ 2 | ≤ 2 | ≤ 2 | 34 | 5980 | 19 | 51 | 242 | 413 | 586 | 11
C[C@@]1(O)CCCN(c2nc(OC[C@@]34CCCN3C[C@H](F)C4)nc3c(F)c(-c4cc(O)cc5ccc(F)c(Cl)c45)ncc23)C1 [Example 418, (R)-1-(7-(8-chloro-7-fluoro-3-hydroxynaphthalen-1-yl)-8-fluoro-2-(((2R,7aS)-2-fluorohexahydro-1H-pyrrolizin-7a-yl)methoxy)pyrido[4,3-d]pyrimidin-4-yl)-3-methylpiperidin-3-ol] | ≤ 2 | ≤ 2 | 3 | 3 | 596 | 25 | 32 | 74 | 52 | 60 | 11
Oc1cc(-c2ncc3c(N4CC5CC(O)C(C5)C4)nc(OC[C@@]45CCCN4C[C@H](F)C5)nc3c2F)c2c(Cl)c(F)ccc2c1 (stereo partly drawn) [Example 421, 3-(7-(8-chloro-7-fluoro-3-hydroxynaphthalen-1-yl)-8-fluoro-2-(((2R,7aS)-2-fluorotetrahydro-1H-pyrrolizin-7a(5H)-yl)methoxy)pyrido[4,3-d]pyrimidin-4-yl)-3-azabicyclo[3,2,1]octan-6-ol] | 3 | ≤ 2 | ≤ 2 | 4 | 1500 | 61 | 26 | 39 | 73 | 70 | 16
